Test results: patent publication US5882851A, “Cytochrome P-450 monooxygenases” (Novartis Finance Corporation, priority 1993, dated 1999)
In brackets after ≈: the same amount, converted by molar mass. Where two headings read alike, the source gives them in different places.

Tests used:
[1] = target: T1, P-450TYR expressed in E. coli (Sorghum bicolor, UniProt Q43135); assay: Substrate binding spectra of P-450TYR expressed in E. coli
T1 construct: in which the 35 N-terminal amino acids are replaced by the nine N-terminal amino acids from bovine 17α hydroxylase; nine N-terminal amino acids from bovine 17alpha-hydroxylase (replace the 35 N-terminal residues) (N); made in house; host or cells: E. coli JM109, vector pSP19g10L
Description: (§1) Cytochrome P-450TYR in the oxidized state has a strong absorption peak at 420 nm, representing the low spin state of the iron of the heme group. The binding of a ligand to the heme group shifts the absorption maximum by changing the spin state of the iron. Binding of tyrosine at the catalytic site of cytochrome P-450TYR induces a change of the spin state of the oxidized iron from low to high spin, and thereby changes the absorption maximum from 420 nm to 390 nm producing a type I spectrum (Jefcoate, Methods in Enzymology 52:258-279, 1978). The following experimental procedure is used to obtain the substrate binding spectrum: two identical cuvettes containing a buffered solution of the isolated cytochrome P-450 are prepared. The substrate of the enzyme is added to the sample cuvette whereas the same volume of buffer is added to the other cuvette. The difference spectrum is then recorded in an SLM-Aminco DW2c spectrophotometer. The absorption difference, A390-420, is proportional to the concentration of cytochrome P-450TYR with a bound substrate at its active site. If a saturating concentration of substrate is added to the sample cuvette, the absorption difference is proportional to the concentration of the substrate specific cytochrome P-450 in the cuvettes. The saturating concentration of the substrate is determined by titrating the cytochrome P-450 sample with increasing amounts of substrate and monitoring A390-420.
A modified cytocrome P-450TYR, in which the 35 N-terminal amino acids are replaced by the nine N-terminal amino acids from bovine 17α hydroxylase is introduced into the expression vector pSP19g10L which can be obtained from Dr. Henry Barnes (La Jolla, Calif.). This plasmid contains the lac Z promoter fused with the known short leader sequence (g10L) of gene 10 from bacteriophage T7 (Olin et al, 1988). A construct containing the N-terminal amino acids from bovine 17α hydroxylase and a truncated form of the P-450TYR gene is designed using PCR mutagenesis: Oligonucleotide TYROL 1d (5'-CGGGATCCATATGGCTCTGTTATTAGCAGTTTTTCTGTCGTACCTGGCCCG-3'; SEQ ID NO 23) containing a 5' mutant cDNA sequence as well as a BamHI and NdeI restriction site is used together with oligonucleotide TYROL 3 comprising the sequence surrounding the unique BamHI restriction site downstream of the ATG start codon of the cDNA coding for P-450TYR to amplify a modified N-terminal sequence of P-450TYR. The amplification product is cut with NdeI and BamHI restriction enzymes. To introduce a HindIII site immediately downstream of the stop codon of the P-450TYR gene, oligonucleotides TYROL 2 and TYROL 4 are used in a polymerase chain reaction to obtain a C-terminal fragment of the P-450TYR gene comprising a HindIII restriction site immediately downstream of the stop codon. The amplification product is cut with PstI and HindIII restriction enzymes. The complete expression plasmid is constructed by simultaneous ligation of the N-terminal NdeI/BamHI fragment, the BamHI/PstI fragment of the P-450TYR gene and the C-terminal PstI/HindIII fragment into NdeI/HindIII cleaved pSP19g10L vector DNA. The expression vector obtained is transformed into E. coli strain JM109. Transformed E. coli produce 300 nmol to 500 nmol cytochrome P-450TYR per liter cell culture upon growth at 28° C. in the presence of 1 mM isopropyl-β-D-thiogalactopyranoside and at 125 rpm. Expression levels as high as 900 nmol per liter, equivalent to 55 mg P-450TYR per liter, have been obtained. […]

[2] = tested on: biosynthesis of glucosinolates; assay: In vivo effect of cytochrome P450 inhibitors on glucosinolate in etiolated tropaeolum seedlings; conditions: 1 mM inhibitor; for effect on glucosinolate: radioactively labelled phenylalanine, etiolated tropaeolum seedlings
[3] = tested on: Western Corn Root Worm (WCRW); assay: Larval mortality of Western Corn Root Worm on diet; type: in vivo, Diabrotica virgifera virgifera
Description: Insects or insect larvae are fed on a diet containing added cyanogenic glycoside, a diet containing added cyanogenic glycoside, and callus, or a diet supplemented with the supernatant of callus ground-up in the presence of the cyanogenic glycoside. Mortality is compared to the mortality of insects or insect larvae fed on the diet only.
WCRW larvae are fed on a diet with added amygdalin, a diet with added amygdalin and Black Mexican Sweet (BMS) callus or on a diet supplemented with the supernatant of BMS-callus ground-up in the presence of amygdalin. Larval mortality is compared to the mortality of larvae fed on the diet only.
The activity of dhurrin on larval mortality of WCRW was determined as described for amygdalin in example 12.

[4] = target: T2, cytochrome P-450TYR (Sorghum bicolor, UniProt Q43135); assay: Substrate binding spectra of isolated sorghum cytochrome P-450TYR (difference spectrum A390-420)
T2 construct: from tissue; host or cells: microsomes of etiolated Sorghum bicolor seedlings, solubilised and purified by dye columns
T2 sequence (Q43135 1-558): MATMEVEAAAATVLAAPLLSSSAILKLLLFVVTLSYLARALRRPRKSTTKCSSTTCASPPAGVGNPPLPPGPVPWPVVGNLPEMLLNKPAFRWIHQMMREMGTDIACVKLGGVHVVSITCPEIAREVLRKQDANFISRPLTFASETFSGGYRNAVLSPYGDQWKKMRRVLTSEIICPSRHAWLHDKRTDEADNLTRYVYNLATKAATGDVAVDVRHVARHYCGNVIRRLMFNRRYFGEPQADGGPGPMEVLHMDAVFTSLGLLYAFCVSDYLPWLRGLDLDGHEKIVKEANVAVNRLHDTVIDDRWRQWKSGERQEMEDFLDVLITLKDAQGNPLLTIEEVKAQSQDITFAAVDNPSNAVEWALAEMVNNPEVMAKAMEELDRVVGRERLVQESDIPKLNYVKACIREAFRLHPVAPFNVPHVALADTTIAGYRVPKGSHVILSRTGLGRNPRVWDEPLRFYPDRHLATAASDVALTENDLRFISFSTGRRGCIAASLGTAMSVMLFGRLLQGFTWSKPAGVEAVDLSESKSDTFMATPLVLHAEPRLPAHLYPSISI
Method: Cytochrome P-450 substrate binding spectra are recorded with stepwise increased substrate concentration until saturating conditions are reached.
as §1, with “Binding of tyrosine at the catalytic site of cytochrome P-450TYR induces a change of the spin state of the oxidized iron from low to high spin, and thereby changes the absorption maximum from 420 nm to 390 nm producing a type I spectrum (Jefcoate, Methods in Enzymology 52:258-279, 1978).” left out
If a cytochrome P-450 sample can be saturated with two different substrates, there may be two different cytochrome P-450 enzymes in the sample, or there may be one cytochrome P-450 enzyme able to bind to both substrates. To discriminate between these possibilities, saturating amounts of the two substrates are added sequentially and the A390-420absorption change is monitored. If, independent of the order of addition, the addition of the second sample gives rise to an increased A390-420value compared to the value after the addition of the first substrate, the two substrates are bound by different enzymes. If A390-420 remains unchanged upon addition of the second substrate, independent of the order of addition, both substrates bind to the same active site, i.e. to the same cytochrome P-450 enzyme.

[5] = tested on: glucosinolate production; assay: Induction of glucosinolate production in Tropaeolum majus; type: in vivo
Method: Seeds of Tropaeolum majus L. cv Empress of India (Dansk Havefroforsyning, Kolding, DK) are allowed to imbibe and germinate in complete darkness for one week at 25° C. In vivo biosynthesis experiments are performed wherein 1 μCi of the tracer ^14 C-labelled phenylalanine is administered to excised dark-grown seedlings for 24 hours followed by boiling of the plant material in 90% methanol and analysis of the extracts by HPLC as described by Lykkesfeldt and Moller, 1993. Prior to administration of the tracer to the excised seedling or leaf, the intact plant is subjected to a potential inducer for 24 hours.

[6] = tested on: N[C@@H](Cc1ccc(O)cc1)C(=O)O; assay: Reconstitution of cytochrome P-450TYR activity in DLPC micelles; type: biochemical, Sorghum bicolor; conditions: pH 7.9, 30.0 °C
Description: Reconstitution of the enzyme activity of a microsomal P-450 enzyme is accomplished by insertion of the cytochrome P-450 enzyme and the corresponding NADPH-cytochrome P-450 oxidoreductase into appropriate lipid micelles made from different commercially available lipids. Isolation of NADPH-cytochrome P-450 oxidoreductase is done according to Halkier and Moller, Plant Physiol. 96:10-17, 1990. A mixture of lipids can be used but with cytochrome P-450TYR di-lauroyl-phosphatidyl choline (DLPC) provides the best enzymatic activity. One rate limiting factor of this rate limiting reaction is the number of correctly formed complexes of cytochrome P-450TYR and NADPH-cytochrome P-450 oxidoreductase. Excess amounts of the oxidoreductase and concentrated enzyme solutions ensure a sufficient number of active complexes.
A reconstituted enzyme is obtained using the following components:
Cytochrome P-450TYR : 100 μg/ml in 50 mM potassium phosphate buffer pH 7,9
Oxidoreductase, purified from Sorghum bicolor: 100 μg/ml in 50 mM potassium phosphate buffer pH 7,9
Lipid: 10 mg/ml di-lauroyl-phosphatidyl choline, sonicated in 50 mM potassium phosphate buffer pH 7,9
^14 C-tyrosine: commercially available from Amersham; [U-^14 C]-L-tyrosine 0.5 μCi
10 μl of the lipid suspension is mixed in a glass vial with 50 μl of the cytochrome P-450TYR (0-1.5 pmol) solution. 50 μl of the oxidoreductase (0-0.15 U) solution is added and then 10 μl tyrosine solution and 10 μl NADPH solution are added and the mixture is sonicated in a Branson 5200 sonication bath for one minute. The reaction mixture is subsequently incubated for 1 hour at 30° C. At the end of the incubation period the reaction is stopped by transferring the glass vials onto ice. Radioactively labelled intermediates formed are extracted into 50 μl ehtyl acetate, applied to a silica coated TLC plate and developed using an ethyl acetate/toluene (1:5 v/v) mixture as mobile phase. The resultant product, p-hydroxyphenylacetaldehyde oxime is visualized by autoradiography of the TLC plate. Alternatively, the intermediates are analyzed by reverse-phase HPLC coupled to a Berthold radioactiviy monitor. The HPLC separation was carried out using a nucleosil 100-10C18 column isocratically eluted with 1,5% 2-propanol in 25 mM Hepes pH 7,9 (Halkier et al, J. Biol. Chem. 264:19487-19494, 1989). Control samples may be made by omitting either cytochrome P-450 oxidoreductase or NADPH.

T1 sequence (Q43135 other isoform, or with tags, fused parts or gaps): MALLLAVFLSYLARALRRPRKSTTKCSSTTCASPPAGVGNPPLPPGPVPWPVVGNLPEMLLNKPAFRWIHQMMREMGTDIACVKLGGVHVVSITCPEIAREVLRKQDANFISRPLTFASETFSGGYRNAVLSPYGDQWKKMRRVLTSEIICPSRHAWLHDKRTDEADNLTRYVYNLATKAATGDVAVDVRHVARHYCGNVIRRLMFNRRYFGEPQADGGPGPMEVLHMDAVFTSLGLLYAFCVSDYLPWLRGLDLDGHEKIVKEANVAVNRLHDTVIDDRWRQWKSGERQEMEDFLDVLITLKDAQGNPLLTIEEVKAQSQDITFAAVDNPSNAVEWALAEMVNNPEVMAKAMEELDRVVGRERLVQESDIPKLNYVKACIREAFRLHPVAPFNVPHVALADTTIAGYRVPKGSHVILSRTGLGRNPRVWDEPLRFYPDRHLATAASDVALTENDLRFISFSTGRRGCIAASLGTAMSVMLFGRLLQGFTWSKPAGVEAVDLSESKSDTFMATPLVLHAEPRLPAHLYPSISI

ON=CCc1ccc(O)cc1 [p-hydroxyphenylacetaldehyde oxime]
type of substrate binding spectrum [1]: type Ispectrum

Clc1ccc(N2N=NC3C4CC(C5N=NC45)C32)cc1 (centres unmarked) [tetcyclacis]
effect on glucosinolate [2]: reduction of glucosinolate

N#CCc1ccc(O)cc1 [p-hydroxyphenylacetonitrile]
type of substrate binding spectrum [1]: type Ispectrum

enilketoconazol
effect on uptake of phenylalanine ([2]; measured by ethanol extraction of the plant material): without causing a reduction in the uptake of phenylalanine | effect on glucosinolate [2]: reduction of glucosinolate

N#C[C@@H](O[C@@H]1O[C@H](CO)[C@@H](O)[C@H](O)[C@H]1O)c1ccc(O)cc1 [dhurrin]
LC50 [3]: 368 µg/mL (≈ 1180 µM) | 95% confidence limits of LC50 ([3]; WCRW larvae): 0.28 to 0.48 µg/mL | slope of the regression line ([3]; WCRW larvae): 2.5

O=C(O)[C@H](Cc1ccc(O)cc1)NO [N-hydroxytyrosine]
molar extinction coefficient E420-390 [1]: 64.6 cm⁻¹ mM⁻¹ | initial A390-420 ([4]; 50 μl 20 mM N-hydroxytyrosine): 0,0689 | resulting A390-420 ([4]; 50 μl 20 mM N-hydroxytyrosine, dilution factor 550/500): 0,0758 | initial A390-420 ([4]; 120 μl 5 mM N-hydroxytyrosine): 0,0919 | resulting A390-420 ([4]; 120 μl 5 mM N-hydroxytyrosine, dilution factor 620/500): 0,1140 | initial A390-420 ([4]; 140 μl 5 mM N-hydroxytyrosine): 0,0911 | resulting A390-420 ([4]; 140 μl 5 mM N-hydroxytyrosine, dilution factor 640/500): 0,1166 | type of substrate binding spectrum ([4]; isolated sorghum P-450TYR): type I binding spectrum

CC/C=C\C[C@H]1C(=O)CC[C@@H]1CC(=O)O [jasmonic acid]
induction of glucosinolate production ([5]; spraying with 100 μM, incubation 24 hours, etiolated seedlings and green leaves): fivefold induction

N#C[C@H](O[C@@H]1O[C@H](CO[C@@H]2O[C@H](CO)[C@@H](O)[C@H](O)[C@H]2O)[C@@H](O)[C@H](O)[C@H]1O)c1ccccc1 [amygdalin]
lethality ([3]; WCRW larvae, 2 mg/ml, in the absence of BMS-callus): lethal | lethality ([3]; WCRW larvae, concentrations of less than 1 mg/ml, BMS-callus absent): significantly less lethality | LC50 ([3]; WCRW larvae, in the presence of BMS-callus, read-out: LC50): ~1000 µg/mL

CCO [ethanol]
increase in glucosinolate production as compared to control experiments with water ([5]; 10 mM phenylalanine or 2% ethanol administered to the vermiculate, 24 hours, etiolated seedlings): threefold increase

cytochrome P-450TYR (Sorghum bicolor)
Km ([6]; other: in the absence of added salt): 210 µM | Km ([6]; other: in the presence of 15 mM NaCl): 140 µM
